# Measurements published in patent US20240277739A1, “NUTRITONAL COMPOSITIONS FOR GUT BARRIER FUNCTION” (N.V. Nutricia, priority 2021, published 2024).
# Legend:
# [1] = tested on: interleukin-8 (IL-8 or CXCL8) release; assay: DON-induced IL-8 (CXCL8) release from Caco-2 cells, ELISA; format: cell-based, human; conditions: DON 4.2 μM alone
# Experimental: (§1) beta1,3′-galactosyl-lactose (beta3′-GL), beta1,4′-galactosyllactose (beta4′-GL) and beta1,6′-galactosyl-lactose (beta6′-GL) were obtained from Carbosynth (Berkshire, UK), alpha1,3′-galactosyl-lactose (alpha3′-GL) was obtained from Elicityl (Crolles, France). Purified deoxydivalenol (DON) (D0156; Sigma Aldrich, St Luis, MO, USA) was dissolved in pure ethanol and stored at −20° C. Human epithelial colorectal adenocarcinoma (Caco-2) cells were obtained from American Type Tissue Collection (Code HTB-37) (Manasse, VA, USA, passage 90-102).
# Caco-2 cells were used according to established methods. […] After 17-19 days of culturing, a confluent monolayer was obtained with a mean Transepithelial electrical resistance (TEER) exceeding 400 Ω cm^2 measured by a Millicell-Electrical Resistance System voltohm-meter (Millipore, Temecula, CA, USA). […]
# Measurements of the transepithelial electrical resistance (TEER) and lucifer yellow (LY) permeability were conducted to investigate barrier integrity. […] Results are expressed as a percentage of the initial value. […] Release of interleukin-8 (IL-8 or CXCL8), which is a typical marker for inflammation, was quantified in the medium of the apical side and the basolateral side of the Caco-2 transwell inserts in response to the treatments. […]
# Caco-2 cell monolayer [2] = assay: TEER of Caco-2 monolayer with OA, PA, beta3′-GL and combinations (no DON); format: cell-based, human; conditions: for effect on TEER at 100 μM fatty acid, in words: data not shown
# Experimental: (§2) Caco-2 cells were used according to established methods. In brief: cells were cultured in Dulbecco's modified Eagle medium (DMEM) and seeded at a density of 0.3×10^5 cells into 0.3 cm^2 high pore density (0.4 μm) inserts with a polyethylene terephthalate membrane (BD Biosciences, Franklin Lakes, NJ, USA) placed in a 24-well plate. The Caco-2 cells were maintained in a humidified atmosphere of 95% air and 5% CO2 at 37° C. After 17-19 days of culturing, a confluent monolayer was obtained with a mean Transepithelial electrical resistance (TEER) exceeding 400 Ω cm^2 measured by a Millicell-Electrical Resistance System voltohm-meter (Millipore, Temecula, CA, USA).
# (§3) Measurements of the transepithelial electrical resistance (TEER) and lucifer yellow (LY) permeability were conducted to investigate barrier integrity. For TEER measurements a Millicel-ERS voltohmmeter connected to a pair of chopsticks electrodes was used to measure the TEER values. Results are expressed as a percentage of the initial value. For paracellular tracer flux assay the membrane impermeable lucifer yellow (LY) (Sigma, St Luis, MO, USA) was added in a concentration of 16 μg/ml to the apical compartment in the transwell plate for 4 h, and the paracellular flux was determined by measuring the fluorescence intensity in the basolateral compartment with a spectrophotofluorimeter (FLUOstar Optima, BMG Labtech, Offenburg, Germany) set at excitation and emission wavelengths of 410 and 520 nm, respectively. Release of interleukin-8 (IL-8 or CXCL8), which is a typical marker for inflammation, was quantified in the medium of the apical side and the basolateral side of the Caco-2 transwell inserts in response to the treatments. CXCL8 concentrations were measured by using the human IL-8 ELISA assay (BD Biosciences, Pharmingem, San Diego, CA, USA) according to manufacturer's instructions. For more details on materials and methods see Akbari et al, 2016, Eur J Nutr. 56(5):1919-1930.
# (§4) Barrier function experiments were performed using the method as described in example 3. Oleic acid (OA) and palmitic acid were obtained from Sigma-Aldrich. Palmitic acid was coupled to fatty acid free Bovine Serum Albumin (BSA, Roche) to make a 6:1 BSA-palmitic acid conjugate solution, which is needed to dissolve palmitic acid in culture medium and therefore common practice in the field (reference Alsabeeh et al, Biochim. Biophys Acta. 2018 February; 1863(2): 143-151). Throughout this document this conjugate solution will be abbreviated as PA.
# Tables 5a and 5b show the effects of OA and PA and beta3′-GL and its combinations on the intestinal barrier function as measured by TEER.
# [3] = tested on: T84 human intestinal epithelial cells; assay: TEER of T84 monolayers pre-incubated with fatty acids, SCFA mix or combination; format: cell-based; conditions: for % TEER (24 h): relative to medium control at 24 h; for increase of gut barrier function (TEER) versus control: fatty acid 50 μM in combination with SCFA 40 mM; for increase of gut barrier function (TEER) versus control / change of gut barrier function (TEER) versus control: 24 h; for increase of gut barrier function expected for an additive effect: fatty acid 50 μM plus SCFA 40 mM; for change of gut barrier function (TEER) versus control: single ingredient: fatty acid 50 μM or SCFA mix 40 mM
# Description: The effect of palmitic acid and oleic acid combined with a mixture of short chain fatty acids (SCFA mix) having a concentration profile that is typical for fermentation of a mixture of galacto-oligosaccharides (GOS) derived from VivinalGOS and long chain fructo-oligosaccharides (RaftilineHP) in a ratio of 9/1 (w/w) on barrier permeability was investigated. The concentration profiles of SCFA is as disclosed in Example 3 of EP2100520 (incorporated by reference herein), specifically as shown in FIG. 3A of EP2100520 (incorporated by reference herein) (see second bar in FIG. 3A), i.e. about 75% being acetic acid. Oleic acid and palmitic acid were obtained from Sigma-Aldrich and coupled to fatty acid free Bovine Serum Albumin (BSA, Sigma-Aldrich) prior to cell treatment.
# T84 human intestinal epithelial cells are commonly used to study intestinal barrier integrity in vitro. T84 cells (ATCC, USA) were cultured on 12 mm transwell inserts (0.4 μm, Corning Costrar, USA) in DMEM-F12 glutamax with penicillin-streptomycin (100 IU/ml), supplemented with […]. T84 cells were used 14 days after reaching confluence. Monolayers of T84 cultured on transwell filters were pre-incubated with fatty acids, SCFA mix or a combination thereof for a period of 24 hours.
# Epithelial barrier integrity was assessed by measuring transepithelial resistance (TEER; Ω×cm^2) with the epithelial volt-ohm meter (Millicell ERS-2; Millipore USA). TEER measurements were performed at 0, 24, h of incubation. TEER values of the fatty acids (i.e. SCFA, OA, PA) are expressed relative to the medium control TEER values at 24 h.
# Caco-2 cell monolayer [4] = assay: TEER of Caco-2 monolayer, DON-induced impairment of barrier integrity; format: cell-based, human; conditions: for TEER in the presence of DON (FIG. 3), single ingredient, in words: DON 4.2 μM, 0.75 wt % beta3′-GL or 600 μM fatty acid alone; for effect on DON-induced loss of epithelial barrier integrity, TEER (FIGS. 1A, 1B), in words: 0.75 wt. % GL, 24 h pretreatment, then DON 4.2 μM 24 h
# Experimental: as §1, §2
# (§5) Caco-2 cell monolayers were thus grown in a transwell system, which is a model for intestinal barrier function. The monolayers were pretreated for 24 h with different GLs, including beta3′-GL, alpha3′-GL, beta4′-GL and beta6′-GL in a concentration of 0.75 wt. % of the GL, before being exposed to the fungal toxin deoxynivalenol (DON), which is a trigger and model compound to impair intestinal barrier. DON was diluted to a final concentration of 4.2 μM in complete cell medium and added to the apical side as well as to the basolateral side of the transwell inserts. […] Incubation with DON was 24 h.
# as §3
# (§6) For TOS concentrations of 0.25 wt. % (TOS 0.25) and 0.5 wt. % (TOS 0.5) were tested.
# as §4
# Caco-2 cell monolayer [5] = assay: Lucifer yellow (LY) paracellular flux across Caco-2 monolayer, DON-induced impairment; format: cell-based, human; conditions: for effect on DON-induced loss of epithelial barrier integrity, LY flux (FIGS. 1C, 1D), in words: 0.75 wt. % GL, 24 h pretreatment, then DON 4.2 μM 24 h
# Experimental: as §1, §2, §5, §3, §6
# Barrier function experiments were performed using the method as described in example 3. Oleic acid (OA) and palmitic acid were obtained from Sigma-Aldrich. […]
# [6] = tested on: infant microbiota (pooled fecal samples from 3 healthy infants); assay: Fermentation of galactosyllactoses by infant fecal microbiota (i-Screen anaerobic colon model); parameters: species or system human; acetate / lactate: unit not given here; conditions: for acetate / lactate: t = 24 h
# Experimental: The effect of pure 3′-GL, 4′-GL, and 6′-GL of the three galactosyllactoses functionality (pH, lactate, acetate levels) was evaluated. Beta1,3-galactosyllactose (beat3′-GL), beta1,4-galactosyllactose (beta4′-GL) and beta1,6-galactosyllactose (beta6′-GL) were obtained from Carbosynth (Berkshire, UK) Measurements of all parameters were performed after a 24-hour incubation in the high-throughput anaerobic colon model, i-Screen™ (TNO, Zeist, the Netherlands).
# Fecal samples from 3 healthy infants (aged 1-4 months) were pooled and activated for 4 hours in a modified standard ileal efflux medium (pH 6.0) at 37° C. under anaerobic conditions. Next, each GL was added. After an incubation for 24 hours at 37° C. under anaerobic conditions, samples were collected for further analysis and pH levels were immediately measured using a pH meter MultiCal pH 526 (WTW, Weilheim, Germany). The samples were centrifuged at 4,000 g for 5 minutes and the supernatant was filter sterilized using 0.45 μm filters. For the SCFA analysis, a mixture of formic acid ([…]), methanol and 2-ethyl butyric acid (internal standard, 2 mg/ml in methanol) was added to the filtered supernatant. A 3 μl sample with a split ratio of 75.0 was injected on a GC-column (ZB-5HT inferno, ID 0.52 mm, film thickness 0.10 μm; Zebron; phenomenex, USA) in a Shimadzu GC-2014 gas chromatograph. The levels of acetic acid and lactic acid were measured. For lactate analysis, the total of D- and L-lactate was determined the filtered supernatant by the Arena 20XL analyser. This assay is based on the D- and L-lactic acid assay kits (Thermo Fisher Scientific oy, www.e-labeling.eu/TSF9843061FU and www.e-labeling.eu/TSF9843081FU). The assay was performed following the manufacturer's instructions with one adaptation: the reagents DLac RI and LLac RI from the two kits were mixed in a 1:1 ratio to detect both L and D isomers of lactic acid simultaneously. Calibration of the assay was done with an ‘Acid combination standard’ (order number 984382) containing both L-lactic acid and D-lactic acid.
# [7] = fatty acid 50 μM + SCFA mix 40 mM
# [8] = fatty acid 50 μM, SCFA mix 0 mM
Compound,"TEER in the presence of DON (FIG. 3), single ingredient, in words (Caco-2 cell monolayer [4])","effect on DON-induced loss of epithelial barrier integrity, LY flux (FIGS. 1C, 1D), in words (Caco-2 cell monolayer [5])","effect on DON-induced loss of epithelial barrier integrity, TEER (FIGS. 1A, 1B), in words (Caco-2 cell monolayer [4])",acetate ([6]; 3 mg/ml),lactate ([6]; 3 mg/ml),acetate ([6]; 9 mg/ml),lactate ([6]; 9 mg/ml),other results
"CC1=C[C@H]2O[C@@H]3[C@H](O)C[C@](C)([C@@]2(CO)[C@H](O)C1=O)[C@]31CO1 [DON, deoxynivalenol]",–,–,–,–,–,–,–,"CXCL8 (IL-8) release (FIG. 2), in words [1]: increased CXCL8 (IL-8) release"
"CCCCCCCC/C=C\CCCCCCCC(=O)O [OA, oleic acid]",somewhat higher than in the control,–,–,–,–,–,–,"effect on TEER at 100 μM fatty acid, in words (Caco-2 cell monolayer [2]): improving effect on TEER was also observed; % TEER (24 h) (Caco-2 cell monolayer [2]; Table 5a: oleic acid 600 μM, beta3′GL 0, relative to the medium control): 138%; % TEER (24 h) [3, 7]: 210%; increase of gut barrier function (TEER) versus control [3]: 110%; increase of gut barrier function expected for an additive effect [3]: 94%; % TEER (24 h) [3, 8]: 134%; change of gut barrier function (TEER) versus control [3]: 34%"
"CCCCCCCCCCCCCCCC(=O)O [PA, palmitic acid]",did not improve the TEER in the presence of DON,–,–,–,–,–,–,"effect on TEER at 100 μM fatty acid, in words (Caco-2 cell monolayer [2]): This effect on TEER was also observed; % TEER (24 h) (Caco-2 cell monolayer [2]; Table 5b: palmitic acid 600 μM, 3′GL 0): 69%; gut barrier function by LYF assay, fatty acid alone, in words (Caco-2 cell monolayer [5]; DON model, data not shown): A similar effect was observed; % TEER (24 h) [3, 7]: 143%; increase of gut barrier function (TEER) versus control [3]: 43%; increase of gut barrier function expected for an additive effect [3]: 54%; % TEER (24 h) [3, 8]: 94%; change of gut barrier function (TEER) versus control [3]: −6%"
"OC[C@H]1O[C@H](O[C@H]2[C@@H](O)[C@@H](CO)O[C@@H](O[C@H]3[C@H](O)[C@@H](O)C(O)O[C@@H]3CO)[C@@H]2O)[C@H](O)[C@@H](O)[C@H]1O (stereo partly drawn) [alpha3′-GL, Gal (alpha 1-3)-Gal (beta 1-4)-Glc]",–,did not prevent the DON-induced disrupted intestinal barrier,did not prevent the DON-induced disrupted intestinal barrier,–,–,–,–,–
"OC[C@H]1O[C@@H](O[C@@H]2[C@H](O)[C@@H](O)[C@H](O[C@H]3[C@H](O)[C@@H](O)C(O)O[C@@H]3CO)O[C@@H]2CO)[C@H](O)[C@@H](O)[C@H]1O (stereo partly drawn) [beta4′-GL, Gal (beta 1-4)-Gal (beta 1-4)-Glc]",–,did not show a significant effect,did not show a significant effect,52.2,0.0,65.4,3.6,–
"OC[C@H]1O[C@@H](OC[C@H]2O[C@@H](O[C@H]3[C@H](O)[C@@H](O)C(O)O[C@@H]3CO)[C@H](O)[C@@H](O)[C@H]2O)[C@H](O)[C@@H](O)[C@H]1O (stereo partly drawn) [beta6′-GL, Gal (beta 1-6) Gal (beta 1-4)-Glc]",–,did not show a significant effect,did not show a significant effect,51.9,0.0,74.3,2.7,–
Gal (beta 1-3)-Gal (beta 1-4)-Glc [beta3′-GL],somewhat higher than in the control,reduction in the DON-affected LY flux,increased TEER values,61.3,0.0,77.1,1.3,"pH, acetate and lactate after fermentation, in words ([6]; 24 h incubation): the highest levels of acetate and lactate and the lowest pH level; % TEER (24 h) (Caco-2 cell monolayer [2]; Table 5a: beta3′GL 0.75 w/v %, oleic acid 0, relative to the medium control): 117%; % TEER (24 h) (Caco-2 cell monolayer [2]; Table 5b: 3′GL 0.75, palmitic acid 0): 129%; beta3′-GL concentration at which the effect on gut barrier function is observed (Caco-2 cell monolayer [4]; beta3′-GL content of the TOS tested, DON model): lower than 0.17 wt. %"
